{"source": "patent US20240317827A1", "about": "“LINEAR PEPTIDES INHIBITING CK2-MEDIATED PHOSPHORYLATION AND COMPOSITIONS COMPRISING SAME” (CENTRO DE INGENIERÍA GENÉTICA Y BIOTECNOLOGÍA, priority 2021, published 2024)", "note": "Where a SMILES comes first, the peptide text is derived from it. [ ]: non-standard residue; d: D form. βAla = NCCC(=O)O", "data": [{"tested_on": "NCI-H125 cell line (non-small cell lung cancer)", "experiment": "cell proliferation assay, NCI-H125 line", "format": "cell-based", "settings": "NCI-H125, Table 5; read-out: IC50", "description": "(§1) The evaluation of the antiproliferative activity of polypeptides F11P13-F11P21 (SEQ ID NO: 12-SEQ ID NO: 20) was performed on the NCI-H125 cell line. […] The antiproliferative effect of the CIGB-300 peptide has been widely characterized in this line (Cirigliano S. M., et al., 2017, Cancer Cell International, 17, 42), therefore, it was selected as a positive control. Tat peptide was used as a negative control. The polypeptides were evaluated at the concentrations of 25, 50, 100 and 200 μM. The cell proliferation assay was performed by a previously described procedure (Perera Y., et al., 2012, J. Pept. Sci, 18 (4):215-23).\n(§2) The 24 polypeptides identified as SEQ ID NO: 21-SEQ ID NO: 44 maintained the ability to inhibit the phosphorylation of the E7 protein of HPV-16, mediated by CK2, since phosphorylation inhibition values between 60-85% were obtained. […] Evaluation of the antiproliferative activity of synthetic polypeptides generated by positional scanning of Trp (SEQ ID NO: 21-SEQ ID NO: 44) was performed on the NCI-H125 cell line. The test was performed by the procedure previously described. (Perera Y., et al., 2012, J. Pept. Sci, 18 (4): 215-23). Precursor polypeptides (F11P19, F11P20, F11P21) and peptide CIGB-300 were included as positive controls. The polypeptides were evaluated at the concentrations of 12.5; 25; fifty; 100 and 200 μM.\n(§3) The evaluation of the antiproliferative activity of synthetic polypeptides A15P35, A15P36 and A15P37 (SEQ ID NO: 46-SEQ ID NO: 48) was performed on the NCI-H125, AsPC-1, PanC-1 (pancreatic carcinoma) and OCI-AML3 (acute myeloid leukemia-3) cell lines. The test was carried out according to the procedure previously described (Perera Y, et al., 2012, J. Pept. Sci, 18 (4):215-23). […] The polypeptides A15P35, A15P36 and A15P37 were able to produce a dose-dependent effect on the proliferation of NCI-H125 cells.\n(§4) Antiproliferative assays were performed on the NCI-H125, Hep2C (laryngeal carcinoma) cell lines, and on two bladder cancer lines (MGH-U3 and MGH-U4). The test was carried out according to the procedure previously described (Perera Y., et al, 2012, Pept. Sci, 18 (4):215-23).", "units": {"IC50": "µM"}, "values": [{"smiles": "N=C(N)NCCC[C@H](NC(=O)CN)C(=O)N[C@@H](CCCCN)C(=O)N[C@@H](CCCCN)C(=O)N[C@@H](CCCNC(=N)N)C(=O)N[C@@H](CCCNC(=N)N)C(=O)N[C@@H](CCC(N)=O)C(=O)N[C@@H](CCCNC(=N)N)C(=O)N[C@@H](CCCNC(=N)N)C(=O)N[C@@H](CCCNC(=N)N)C(=O)N1CCC[C@H]1C(=O)N1CCC[C@H]1C(=O)N[C@@H](CCC(N)=O)C(=O)NCCC(=O)N[C@@H](Cc1c[nH]c2ccccc12)C(=O)N[C@@H](Cc1ccc(O)cc1)C(=O)N[C@@H](CCCNC(=N)N)C(=O)N[C@@H](Cc1ccc(O)cc1)C(=O)N[C@@H](CCCCN)C(=O)N[C@@H](CCCNC(=N)N)C(=O)N[C@@H](CC(=O)O)C(=O)N1CCC[C@H]1C(N)=O", "note": "[A14P27, GRKKRRQRRRPPQ-βA-WYRYKRDP] (H-GRKKRRQRRRPPQ[βAla]WYRYKRDP-NH2; N-terminus and C-terminus assumed)", "IC50": 165}, {"smiles": "N=C(N)NCCC[C@H](NC(=O)CN)C(=O)N[C@@H](CCCCN)C(=O)N[C@@H](CCCCN)C(=O)N[C@@H](CCCNC(=N)N)C(=O)N[C@@H](CCCNC(=N)N)C(=O)N[C@@H](CCC(N)=O)C(=O)N[C@@H](CCCNC(=N)N)C(=O)N[C@@H](CCCNC(=N)N)C(=O)N[C@@H](CCCNC(=N)N)C(=O)N1CCC[C@H]1C(=O)N1CCC[C@H]1C(=O)N[C@@H](CCC(N)=O)C(=O)NCCC(=O)NCC(=O)N[C@@H](Cc1ccc(O)cc1)C(=O)N[C@@H](CCCNC(=N)N)C(=O)N[C@@H](Cc1ccc(O)cc1)C(=O)N[C@@H](Cc1c[nH]c2ccccc12)C(=O)N[C@@H](CCCNC(=N)N)C(=O)N[C@@H](CC(=O)O)C(=O)N1CCC[C@H]1C(N)=O", "note": "[A14P31, GRKKRRQRRRPPQ-βA-GYRYWRDP] (H-GRKKRRQRRRPPQ[βAla]GYRYWRDP-NH2; N-terminus and C-terminus assumed)", "IC50": 135}, {"smiles": "N=C(N)NCCC[C@H](NC(=O)CN)C(=O)N[C@@H](CCCCN)C(=O)N[C@@H](CCCCN)C(=O)N[C@@H](CCCNC(=N)N)C(=O)N[C@@H](CCCNC(=N)N)C(=O)N[C@@H](CCC(N)=O)C(=O)N[C@@H](CCCNC(=N)N)C(=O)N[C@@H](CCCNC(=N)N)C(=O)N[C@@H](CCCNC(=N)N)C(=O)N1CCC[C@H]1C(=O)N1CCC[C@H]1C(=O)N[C@@H](CCC(N)=O)C(=O)NCCC(=O)NCC(=O)N[C@@H](Cc1ccc(O)cc1)C(=O)N[C@@H](CCCNC(=N)N)C(=O)N[C@@H](Cc1ccc(O)cc1)C(=O)N[C@@H](CCCCN)C(=O)N[C@@H](CCCNC(=N)N)C(=O)N[C@@H](Cc1c[nH]c2ccccc12)C(=O)N1CCC[C@H]1C(N)=O", "note": "[A14P33, GRKKRRQRRRPPQ-βA-GYRYKRWP] (H-GRKKRRQRRRPPQ[βAla]GYRYKRWP-NH2; N-terminus and C-terminus assumed)", "IC50": 124}, {"smiles": "N=C(N)NCCC[C@H](NC(=O)CN)C(=O)N[C@@H](CCCCN)C(=O)N[C@@H](CCCCN)C(=O)N[C@@H](CCCNC(=N)N)C(=O)N[C@@H](CCCNC(=N)N)C(=O)N[C@@H](CCC(N)=O)C(=O)N[C@@H](CCCNC(=N)N)C(=O)N[C@@H](CCCNC(=N)N)C(=O)N[C@@H](CCCNC(=N)N)C(=O)N1CCC[C@H]1C(=O)N1CCC[C@H]1C(=O)N[C@@H](CCC(N)=O)C(=O)NCCC(=O)N[C@@H](CCCNC(=N)N)C(=O)N[C@@H](CCCCN)C(=O)N[C@@H](CCCNC(=N)N)C(=O)N[C@@H](Cc1c[nH]c2ccccc12)C(=O)N[C@@H](CCCNC(=N)N)C(=O)N[C@@H](Cc1ccc(O)cc1)C(=O)N[C@@H](CC(=O)O)C(=O)N1CCC[C@H]1C(N)=O", "note": "[A14P43, GRKKRRQRRRPPQ-βA-RKRWRYDP] (H-GRKKRRQRRRPPQ[βAla]RKRWRYDP-NH2; N-terminus and C-terminus assumed)", "IC50": 107}, {"smiles": "CC(C)C[C@H](NC(=O)[C@H](CCCNC(=N)N)NC(=O)[C@H](CCCNC(=N)N)NC(=O)[C@H](CCCCN)NC(=O)[C@H](CCCCN)NC(=O)[C@@H](NC(=O)CCNC(=O)[C@H](CCC(N)=O)NC(=O)[C@@H]1CCCN1C(=O)[C@@H]1CCCN1C(=O)[C@H](CCCNC(=N)N)NC(=O)[C@H](CCCNC(=N)N)NC(=O)[C@H](CCCNC(=N)N)NC(=O)[C@H](CCC(N)=O)NC(=O)[C@H](CCCNC(=N)N)NC(=O)[C@H](CCCNC(=N)N)NC(=O)[C@H](CCCCN)NC(=O)[C@H](CCCCN)NC(=O)[C@H](CCCNC(=N)N)NC(=O)CN)C(C)C)C(=O)N[C@@H](Cc1c[nH]c2ccccc12)C(=O)N1CCC[C@H]1C(N)=O", "note": "[A14P59, GRKKRRQRRRPPQ-βA-VKKRRLWP] (H-GRKKRRQRRRPPQ[βAla]VKKRRLWP-NH2; N-terminus and C-terminus assumed)", "IC50": 140}]}, {"tested_on": "NCI-H125 cell line (non-small cell lung cancer)", "experiment": "cell proliferation assay, NCI-H125 line", "format": "cell-based", "settings": "NCI-H125; read-out: IC50 (dose-effect curves)", "description": "as §1, §2, §3, §4", "units": {"IC50": "µM"}, "values": [{"smiles": "N=C(N)NCCC[C@H](NC(=O)CN)C(=O)N[C@@H](CCCCN)C(=O)N[C@@H](CCCCN)C(=O)N[C@@H](CCCNC(=N)N)C(=O)N[C@@H](CCCNC(=N)N)C(=O)N[C@@H](CCC(N)=O)C(=O)N[C@@H](CCCNC(=N)N)C(=O)N[C@@H](CCCNC(=N)N)C(=O)N[C@@H](CCCNC(=N)N)C(=O)N1CCC[C@H]1C(=O)N1CCC[C@H]1C(=O)N[C@@H](CCC(N)=O)C(=O)NCCC(=O)N[C@@H](CCCNC(=N)N)C(=O)N[C@@H](CCCCN)C(=O)N[C@@H](CCCNC(=N)N)C(=O)N[C@@H](CO)C(=O)N[C@@H](CCCNC(=N)N)C(=O)N[C@@H](Cc1ccc(O)cc1)C(=O)N[C@@H](CC(=O)O)C(=O)N1CCC[C@H]1C(N)=O", "note": "[F11P19, GRKKRRQRRRPPQ-βA-RKRSRYDP] (H-GRKKRRQRRRPPQ[βAla]RKRSRYDP-NH2; N-terminus and C-terminus assumed)", "IC50": 336}, {"smiles": "N=C(N)NCCC[C@H](NC(=O)CN)C(=O)N[C@@H](CCCCN)C(=O)N[C@@H](CCCCN)C(=O)N[C@@H](CCCNC(=N)N)C(=O)N[C@@H](CCCNC(=N)N)C(=O)N[C@@H](CCC(N)=O)C(=O)N[C@@H](CCCNC(=N)N)C(=O)N[C@@H](CCCNC(=N)N)C(=O)N[C@@H](CCCNC(=N)N)C(=O)N1CCC[C@H]1C(=O)N1CCC[C@H]1C(=O)N[C@@H](CCC(N)=O)C(=O)NCCC(=O)NCC(=O)N[C@@H](Cc1ccc(O)cc1)C(=O)N[C@@H](CCCNC(=N)N)C(=O)N[C@@H](Cc1ccc(O)cc1)C(=O)N[C@@H](CCCCN)C(=O)N[C@@H](CCCNC(=N)N)C(=O)N[C@@H](CC(=O)O)C(=O)N1CCC[C@H]1C(N)=O", "note": "[F11P20, GRKKRRQRRRPPQ-βA-GYRYKRDP] (H-GRKKRRQRRRPPQ[βAla]GYRYKRDP-NH2; N-terminus and C-terminus assumed)", "IC50": 305}, {"smiles": "CC(C)C[C@H](NC(=O)[C@H](CCCNC(=N)N)NC(=O)[C@H](CCCNC(=N)N)NC(=O)[C@H](CCCCN)NC(=O)[C@H](CCCCN)NC(=O)[C@@H](NC(=O)CCNC(=O)[C@H](CCC(N)=O)NC(=O)[C@@H]1CCCN1C(=O)[C@@H]1CCCN1C(=O)[C@H](CCCNC(=N)N)NC(=O)[C@H](CCCNC(=N)N)NC(=O)[C@H](CCCNC(=N)N)NC(=O)[C@H](CCC(N)=O)NC(=O)[C@H](CCCNC(=N)N)NC(=O)[C@H](CCCNC(=N)N)NC(=O)[C@H](CCCCN)NC(=O)[C@H](CCCCN)NC(=O)[C@H](CCCNC(=N)N)NC(=O)CN)C(C)C)C(=O)N[C@@H](CC(=O)O)C(=O)N1CCC[C@H]1C(N)=O", "note": "[F11P21, GRKKRRQRRRPPQ-βA-VKKRRLDP] (H-GRKKRRQRRRPPQ[βAla]VKKRRLDP-NH2; N-terminus and C-terminus assumed)", "IC50": 668}]}]}
